Reference: patent publication US11345745B2, “Peptide-hinge-free flexible antibody-like molecule” (BIOMOLECULAR HOLDINGS LLC, priority 2011, dated 2022)

System: anti-Aβ mAb (6E10)
Assay: Surface plasmon resonance (SPR) binding to immobilized anti-Aβ monoclonal antibody 6E10
Details: 6E10 immobilized on the surface of the SPR chip
Description: SPR tests were carried out using a Biacore T100 instrument (Biacore AB, Uppsala, Sweden). A ligand, biotin-labeled 6E10 monoclonal antibody (Covance, Princeton, N.J.), was immobilized at a concentration of 10 mg/ml in PBS onto a CAP sensor chip, Series S, using a Biotin CAPture Kit (GE Healthcare, Piscataway, N.J.). The sensor chip was loaded with a streptavidin capture reagent and regenerated according to the manufacturer's instruction, including an additional regeneration step using 0.25 MNaOH in 30% acetonitrile. Binding of Aβ symmetroadhesins and Aβ peptides was carried out at 25° C. in 10 mM Hepes buffer, pH 7,4, 150 mM NaCl, 3 mM EDTA, and 0.005 vol % Tween-20. Data was evaluated using Biacore T100 Evaluation Software, version 2.0.3.
Accordingly, the present inventors characterized the binding of the Aβ symmetroadhesins of the present inventors to one of these antibodies (6E10) using surface plasmon resonance (SPR). The present inventors compared the binding of Aβ peptides containing the [sequence] sequence (SEQ ID No. 2) which were expected to bind to 6E10 in a one-handed manner.

- binding to immobilized 6E10 (observed or not): No binding
Substance: Fc6: recombinant human IgG1 Fc protein beginning at 226CPPC core hinge, N-terminal cysteine, expressed in CHO cells
